Earlier results on 2 compounds are cited in patent US20140271893A1 (McNeil-PPC, Inc., priority 2013, published 2014).

For series [1] the following is noted: 30 mg dose administered orally over eight hours.
For series [2] the following is noted: therapeutic dose.

In the case of `CNC[C@H](O)c1cccc(O)c1` [phenylephrine, (R)-1-(3-hydroxyphenyl)-2-methylaminoethanol], in series [1], the “metabolized to m-hydroxy-phenylglycol-sulfate, % of the dose” value is 6%; the “metabolized to m-hydroxymandelic acid, % of the dose” value is listed as 30%; the “metabolized to phenylephrine-glucuronide, % of the dose” value is given as 12%; the “metabolized to phenylephrine-sulfate, % of the dose” value is recorded as 47%.
On to `CC(=O)Nc1ccc(O)cc1` [acetaminophen], for which the “fraction of dose excreted unchanged in the urine” value in series [2] is given as “Less than 9%”.
